Measured values taken from patent US6943147B2, “Cancer treatment using proANP peptides” (University of South Florida, priority 2003, dated 2005).

How the values were obtained:
[1] = test system: pancreatic adenocarcinoma cell line, ATCC number CRL-2119; test: Number of pancreatic adenocarcinoma cells in culture, counted by microscope; type: cell-based, human
Source text: The pancreatic adenocarcinoma cell line, ATCC number CRL-2119, was derived in 1985 from a nude mouse xenograft of a primary tumor removed from the head of the pancreas. It is a moderate to well-differentiated pancreatic adenocarcinoma of ductal origin. These pancreatic adenocarcinoma cells are stimulated to proliferate in culture by insulin, insulin-like growth factor I (IGF-I), epidermal growth factor (EGF), and transforming growth factor alpha (TGF alpha). These adenocarcinoma cells contain significant concentrations of tumor-associated antigens CEA, CA 125, and CA 19-9. In culture, these adenocarcinoma cells form monolayers of morphologically heterogeneous polar epithelial cells. These cells are tumorgenic in that they form tumors in athymic nude mice at the site of inoculation that are histologically similar to the tumor of origin.
Propagation of these cells was in Dulbecco's modified Eagle's plus Ham's F12-A 1:1 mixture of Dulbecco's modified Eagle's medium and Ham's F12 medium containing 1.2 g/L of sodium bicarbonate (Sigma Chemical Co., St. Louis, Mo.) supplemented with 15 mM HEPES and fetal bovine serum, 10%, at a temperature of 37° C. as recommended by the ATCC.
These pancreatic adenocarcinoma cells were subcultured (passaged) by removing spent (i.e., old) medium by aspiration, and then adding calcium and magnesium free Hank's Balanced Salt Solution with 0.25% trypsin and 0.03% ethylenediaminetetracetic acid (EDTA). The culture was allowed to sit at room temperature for 2 to 5 minutes. Fresh medium was added to the adenocarcinoma cells which were dispensed into new flasks, with subculture every 6 to 8 days. The growth medium was changed every three days.
After these adenocarcinoma cells were subcultured for 24 hours, they were then seeded to coverslips and transferred to 24 microwell plates (NUCOLON, Roskilde Denmark), with 1 ml Dulbeco Modified Eagle's (DME)/[…] nutrient culture media (Sigma Chemical Co.) with 10% fetal bovine serum (Atlanta Biologicals, Norcross, Ga.). After 24 hours, wells were washed twice with Dulbecco's Modified Eagle's/Ham's F12 with 0.1% bovine serum albumin (Sigma-Aldrich, St. Louis, Mo.) and allowed to incubate in this serum free medium for an additional 24 hour period of serum deprivation. Serum-free media was utilized to remove all variables (EGF, etc.) present in serum in order that interpretation of any data obtained would be straightforward. After 24 hours of serum deprivation, media volume was reduced to 250 μL per well with or without the respective peptide hormones at their 1 μM concentrations (1% of this volume). The adenocarcinoma cells were then incubated for various periods of time (24, 48, 72, and 96 hours).At the end of the above time periods, hematoxylin was added for 5 minutes to make the cells more visible for counting, and then they were washed for 5 minutes. The coverslips were then placed face down on microscope slides with the addition of 6 μl of histologic grade phosphate buffered saline (PBS)/I-glycine that had been filtered immediately before use with a 0.22 μm polyethersulfone, nonpyrogenic, sterile, low protein binding membrane (Corning 43117, Corning Inc., Corning, N.Y.). The number of adenocarcinoma cells were then counted with a cell counter evaluating ten fields of the microscope slide at 40× along the X-axis with an Olympus BH-2 microscope (Atlanta, Ga.). This evaluation was repeated on six separate occasions with the number of adenocarcinoma cells reflecting 60 observations for each group, i.e., 60 observations for controls and 60 observations for each of the four groups with respective peptide hormones. The only variable in this investigation was whether one of the four peptide hormones was added to the pancreatic adenocarcinoma cells. Otherwise all the adenocarcinoma cells were treated the same, i.e., with same culture medium, time of incubation, and processing of cells for the various investigations. […]

[2] = test system: pancreatic adenocarcinoma cells; test: DNA synthesis by bromodeoxyuridine (BrdU) incorporation into adenocarcinoma cells; type: cell-based, human; settings: 1 μM, 24 hours
Source text: To investigate whether these peptide hormones were inhibiting DNA synthesis and cell proliferation bromodeoxyuridine (BrdU) incorporation into the adenocarcinoma cells was utilized. BrdU was from BD Bioscience, San Jose, Calif. DNA synthesis and doubling of the genome take place during the synthetic or S phase. BrdU is a thymidine analog incorporated into nuclear DNA during the S phase of the cell cycle. Immunohistochemical methods use BrdU also as a marker of cell proliferation in cancer biology studies. After 24 hours in culture with 1 μM of LANP, vessel dilator, kaliuretic peptide, or ANP, respectively, or with no peptide hormone (i.e., control), BrdU in a final concentration of 10 μM in the cell culture medium was added for 45 minutes—which is time in which the cells are in the logarithmic phase of cell proliferation. For immunohistochemistry, a BrdU in situ detection kit from Becton Dickinson Immunocytochemistry Systems, San Jose, Calif., was utilized.
After the 45 minutes with BrdU, the adenocarcinoma cells were washed three times in phosphate buffered saline (PBS), five minutes each. This was followed by placing the cells in a −80° C. freezer for five minutes and then 100% methanol was added at 5° C. in order for the cells to become permeable enabling the anti-BrdU antibody to reach the nucleus of the cell. The cells were then washed again in PBS before 100 μl of biotinylated anti-BrdU antibody was added. The coverslips were then incubated in a humidified chamber for one hour. After this incubation, the slides were rinsed in PBS, two minutes each. Then streptavidin-horseradish peroxidase (HRP) was added to each coverslip. The cells were then incubated for 30 minutes. Streptavidin-HRP binds to biotinylated anti-BrdU and HRP is used with addition of diaminobenzidine (DAB) substrate system to visualize BrdU incorporation into the adénocarcinoma cells. After the 30 minute incubation with streptavidin-HRP, the coverslips were rinsed in PBS, two minutes each time, before adding the DAB substrate solution, which contains DAB chromagen and DAB buffer, for five minutes. The coverslips were then rinsed in water, two minutes each time before counterstaining the slides with hematoxylin for 60 seconds followed by a thorough rinsing in water for five minutes. The incorporation of the BrdU stain into the nucleus was then counted using a Nikon Inverted Diaphot-TMD Microscope (Tokyo, Japan). The number of stained nuclei was compared in the four peptide hormone groups to the positive control group. The negative control for these studies was provided by Becton Dickinson Immunocytochemistry Systems.
BrdU has an advantage over ^3H-thymidine incorporation in that it takes less time and provides high resolution.
Cyclic GMP and prostaglandin E2 are the two known mediators of all of the previously described biologic effects of these four peptide hormones. All four of these peptide hormones-induced vasodilation of vasculature is mediated by increased cyclic GMP concentrations via enhancing guanylate cyclase activity. […] ANPs effects in the kidney are thought to be mediated by cyclic GMP. Each of these peptide hormones increase cyclic GMP while simultaneously dilating vasculature. 8 bromo-cyclic GMP reproduces these vasodilatory effects. For the present investigation of the mechanism of these peptide hormones' ability to inhibit DNA synthesis in cancer cells, 8-bromoguanosine 3′,5′-cyclic monophosphate (i.e., 8-bromo cyclic GMP, Sigma-Aldrich Co., St. Louis, Mo.) was utilized. 8-bromo cyclic GMP is a cell-permeable analog of cyclic GMP. 8-bromo cyclic GMP effects on DNA synthesis were investigated in dose-response curves with cyclic GMP concentrations ranging from 100 pM to 5 mM.
Prostaglandin E2, i.e., (5Z, 11α, 13E, 15S)-11, 15-dihydro-9-oxo-prosta-5, 13-dien-I-oic acid was purchased from Sigma-Aldrich, St. Louis, Mo. […]

vessel dilator: a.a. 31-67 of the 126 a.a. ANP prohormone; peptide hormone from Peninsula Laboratories
decrease in the number of adenocarcinoma cells ([1]; 1 μM, 24 hours, vs untreated cells): 65%
number of adenocarcinoma cells ([1]; 1 μM, 24 hours, untreated 183.4+/−8): 63.8+/−4 cells per high powered field
number of cancer cells compared to controls ([1]; 1 μM, 48 hours): 68%
decrease in the number of adenocarcinoma cells ([1]; 1 μM, 72 hours, vs untreated cells): 70%
decrease in the number of adenocarcinoma cells ([1]; 1 μM, 96 hours, vs untreated cells): 70%
decrease in the number of adenocarcinoma cells ([1]; time not stated): 70%
inhibition of DNA synthesis [2]: 91%
